Values joined by “and” are separate entries in the source; they are usually repeats but may differ in a detail not shown here. Equal entries are not always repeated.
Key:
[1] = test system: corn (Dekalb T2000, B73×LH 38); assay: Field evaluation: yield of corn, silt loam location; format: in vivo
Source text: (§1) Field Evaluation: Field evaluations are based on the N content of corn leaf tissue and grain yield utilizing two soil types. Replicate (4X) field plots are established at two different locations, one having (I) silt loam soil and one (II) with sandy loam soil. These soils had been previously cropped to non-fertilized corn to reduce the level of residual N. Maduramicin monoammonium salt is applied (0.25, 0.125, 0.07 ppm) with NH3 (84 or 168 kg N/ha) through a "downstream" by an injection system into silt loam plots. Nitrapyrin (0.25 ppm=0.56 kg a.i./ha), nitrogen checks, benzyl alcohol (1.16L/ha) (BA) and a O nitrogen check are included for comparison. Individual replicate plot sizes are 3.04M×22.8M (4, 76-cm corn rows×22.8M long) Anhydrous ammonia are injected on 76-cm centers.
(§2) Urea, treated or non-treated with Maduramicin monoammonium salt is broadcast on the surface of sandy loam plots. Plots are then planted with corn the day following treatment. Dekalb T2000 is planted 10 May on silt loam plots and Pioneer 3352 is planted 11 May in sandy loam plots.
(§3) Corn ear leaf tissues collected at silking on silt loam plots or 60 days post silking (on silt loam and sandy loam plots) are collected from each plot and assayed for total N (AOAC procedures). Grain yields are determined by harvesting the two center rows×15.2 m of each plot.

corn (Pioneer 3352) = assay: Field evaluation: yield of corn, sandy loam plots; format: in vivo; settings: sandy loam
Source text: as §1
Plots are then planted with corn the day following treatment. Dekalb T2000 is planted 10 May on silt loam plots and Pioneer 3352 is planted 11 May in sandy loam plots.
as §3

[2] = test system: corn (Dekalb T2000, B73×LH 38); assay: Field evaluation: corn ear leaf tissue nitrogen, silt loam plots; format: in vivo; settings: for Corn Leaf Tissue Analysis (total N): ear leaf at silking
Source text: as §1, §2, §3

Nitrobacter spp. = assay: Nitrite nitrogen in ammonium amended soil incubated at 25° C.; settings: soil 25° C., 200 ppm N
Procedure: Determination of nitrite nitrogen and nitrate nitrogen in soil prepared in Example 1 above, which is amended with 200 ppm of nitrogen as aqueous ammonium sulfate, […], is determined using the nitrite and nitrate analysis of the American Organization of Analytical Chemists (AOAC pp. 653-655).

Nitrosomonas spp. = assay: Nitrification of ammonium in soil incubated at 25° C. (ammonium recovery, nitrate accumulation); settings: soil 25° C.; for Concentration of nitrate nitrogen / Recovery of Ammonium Nitrogen: 200 ppm N
Method in brief: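 Silt loam soil (100 g, low residual N) at 50% water saturation given ammonium sulfate at 200 ppm N plus test compound at 0.10–0.50 ppm, duplicates, incubated 25 °C for up to 20 weeks. Inorganic N extracted with 2M KCl; ammonium, nitrite and nitrate measured by steam distillation.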

Nitrabacter = assay: Nitrite in ammonium amended field soil incubated at 38° C.; settings: 0.50 ppm, soil 38° C., 200 ppm N
Procedure: (§4) Determination of Nitrification Inhibition of Soil amended with 200 ppm of nitrogen as ammonium sulfate and 0.5 ppm of Nitrapyrin or 0.5 ppm of Maduramicin, monoammonium salt.
(§5) Soil samples prepared as described in Example 1 above are incubated at 38° C. for 20 weeks. Samples are taken at intervals during the 20 week period, extracted with 2M KCl (10:1 v/w), and assayed for ammonium nitrite and nitrate by standard steam distillation methods.

Nitrosomonos = assay: Nitrification of ammonium amended field soil incubated at 38° C. (ammonium recovery, nitrate); settings: 0.50 ppm, soil 38° C., 200 ppm N
Procedure: as §4, §5

Urease = Urease activity of urea amended soil, 38° C., 24 hrs; format: biochemical
Procedure: Urease activity: Five grams (5 g) oven-dry soil is treated with 5 ml of aqueous urea solution (1000 ug/g soil), with or without the test compound, and incubated in 65 ml screw-capped glass bottles at 38° C. for 24 hrs. Three replicates of each treatment are established. Phenylphosphorodiamide (PPD) is used as a urease inhibitor for comparison with Maduramicin monoammonium salt. Urea remaining is determined after extracting the soil for 60 minutes (with shaking) with 50 ml of 2M KCl containing 0.5 ug/ml of phenylmercuric acetate and filtering the soil suspension. Urea in the extract is determined colorimetrically (Douglas & Bremner, 1970). The percentage inhibition is calculated from (A-B)/(C-B) X 100-% inhibition; where A=the amount of urea found after incubation with the compound, B=the amount of urea found in the non-treated soil, and C=the amount of urea added.

OCc1ccccc1 [Benzyl Alcohol]
AVERAGE YIELD 4-REPLICATES ([1]; N 168 kg/ha, chemical 1.2 l/ha): 140.9 HECTOLITERS/HECTARE | AVERAGE YIELD 4-REPLICATES (corn (Pioneer 3352); N 168 kg/ha as NH3, chemical 1.2 l/ha): 165.3 HECTOLITERS/HECTARE | Corn Leaf Tissue Analysis (total N) ([2]; 1.1 l/ha, NH3 168 kg N/ha): 271 10^2 ug/g | Concentration of nitrite nitrogen (Nitrobacter spp.; 5%, week 0): 6 ppm | Concentration of nitrite nitrogen (Nitrobacter spp.; 5%, week 1): 5 ppm | Concentration of nitrite nitrogen (Nitrobacter spp.; 5%, week 2): 5 ppm | Concentration of nitrite nitrogen (Nitrobacter spp.; 5%, week 4): 6 ppm | Concentration of nitrite nitrogen (Nitrobacter spp.; 5%, week 7): 3 ppm | Concentration of nitrite nitrogen (Nitrobacter spp.; 5%, week 9): -1 ppm | Concentration of nitrite nitrogen (Nitrobacter spp.; 5%, week 12): 5 ppm | Concentration of nitrite nitrogen (Nitrobacter spp.; 5%, week 16): 1 ppm | Concentration of nitrite nitrogen (Nitrobacter spp.; 5%, week 20): 27 ppm | Effect on nitrification, in words (Nitrosomonas spp.; 5%): markedly inhibited nitrification throughout the incubation period | Concentration of nitrate nitrogen (Nitrosomonas spp.; 5%, week 0): 19 PPM | Recovery of Ammonium Nitrogen (Nitrosomonas spp.; 5%, week 0): 194 PPM | Concentration of nitrate nitrogen (Nitrosomonas spp.; 5%, week 1): 21 PPM | Recovery of Ammonium Nitrogen (Nitrosomonas spp.; 5%, week 1): 163 PPM | Concentration of nitrate nitrogen (Nitrosomonas spp.; 5%, week 2): 16 PPM | Recovery of Ammonium Nitrogen (Nitrosomonas spp.; 5%, week 2): 163 PPM | Concentration of nitrate nitrogen (Nitrosomonas spp.; 5%, week 4): 20 PPM | Recovery of Ammonium Nitrogen (Nitrosomonas spp.; 5%, week 4): 168 PPM | Concentration of nitrate nitrogen (Nitrosomonas spp.; 5%, week 7): 15 PPM | Recovery of Ammonium Nitrogen (Nitrosomonas spp.; 5%, week 7): 164 PPM | Concentration of nitrate nitrogen (Nitrosomonas spp.; 5%, week 9): 99 PPM | Recovery of Ammonium Nitrogen (Nitrosomonas spp.; 5%, week 9): 41 PPM | Concentration of nitrate nitrogen (Nitrosomonas spp.; 5%, week 12): 19 PPM | Recovery of Ammonium Nitrogen (Nitrosomonas spp.; 5%, week 12): 163 PPM | Concentration of nitrate nitrogen (Nitrosomonas spp.; 5%, week 16): 27 PPM | Recovery of Ammonium Nitrogen (Nitrosomonas spp.; 5%, week 16): 169 PPM | Concentration of nitrate nitrogen (Nitrosomonas spp.; 5%, week 20): 20 PPM | Recovery of Ammonium Nitrogen (Nitrosomonas spp.; 5%, week 20): 139 PPM

Clc1cccc(C(Cl)(Cl)Cl)n1 [Nitrapyrin]
AVERAGE YIELD 4-REPLICATES ([1]; N 84 kg/ha, chemical 0.56 kg/ha): 133.4 HECTOLITERS/HECTARE | AVERAGE YIELD 4-REPLICATES ([1]; N 168 kg/ha, chemical 0.56 kg/ha): 148.8 HECTOLITERS/HECTARE | AVERAGE YIELD 4-REPLICATES (corn (Pioneer 3352); N 84 kg/ha as NH3, chemical 0.56 kg/ha): 160.1 HECTOLITERS/HECTARE | AVERAGE YIELD 4-REPLICATES (corn (Pioneer 3352); N 168 kg/ha as NH3, chemical 0.56 kg/ha): 167.0 HECTOLITERS/HECTARE | Corn Leaf Tissue Analysis (total N) ([2]; inhibitor 0.56 kg/ha, NH3 84 kg N/ha): 232 10^2 ug/g | Corn Leaf Tissue Analysis (total N) ([2]; inhibitor 0.56 kg/ha, NH3 168 kg N/ha): 291 10^2 ug/g | More nitrogen in leaf tissue than control plots with similar nitrogen ([2]; silt loam plots): 15-25% | Concentration of nitrite nitrogen (Nitrobacter spp.; 0.50 ppm, week 0): 6 ppm | Concentration of nitrite nitrogen (Nitrobacter spp.; 0.50 ppm, week 1): 6 ppm | Concentration of nitrite nitrogen (Nitrobacter spp.; 0.50 ppm, week 2): 3 ppm | Concentration of nitrite nitrogen (Nitrobacter spp.; 0.50 ppm, week 4): 5 ppm | Concentration of nitrite nitrogen (Nitrobacter spp.; 0.50 ppm, week 7): -1 ppm | Concentration of nitrite nitrogen (Nitrobacter spp.; 0.50 ppm, week 9): 8 ppm | Concentration of nitrite nitrogen (Nitrobacter spp.; 0.50 ppm, week 12): -10 ppm | Concentration of nitrite nitrogen (Nitrobacter spp.; 0.50 ppm, week 16): 15 ppm | Concentration of nitrite nitrogen (Nitrobacter spp.; 0.50 ppm, week 20): 34 ppm | Nitrite, reported as nitrogen (Nitrabacter; week 0): 6 ppm | Nitrite, reported as nitrogen (Nitrabacter; week 1): 3 ppm | Nitrite, reported as nitrogen (Nitrabacter; week 2): 12 ppm | Nitrite, reported as nitrogen (Nitrabacter; week 4): 9 ppm | Nitrite, reported as nitrogen (Nitrabacter; week 7): -27 ppm | Nitrite, reported as nitrogen (Nitrabacter; week 9): 14 ppm | Nitrite, reported as nitrogen (Nitrabacter; week 12): 14 ppm | Nitrite, reported as nitrogen (Nitrabacter; week 16): 7 ppm | Nitrite, reported as nitrogen (Nitrabacter; week 20): 27 ppm | Nitrification (percent nitrified) (Nitrosomonas spp.; 0.50 ppm, by the 16th week): 65% | Nitrification (percent nitrified) (Nitrosomonas spp.; 0.50 ppm, by the 20th week): 87% | Time through which nitrification is delayed or inhibited (Nitrosomonas spp.; 0.5 ppm): 12 weeks | Concentration of nitrate nitrogen (Nitrosomonas spp.; 0.50 ppm, week 0): 18 PPM | Recovery of Ammonium Nitrogen (Nitrosomonas spp.; 0.50 ppm, week 0): 193 PPM | Concentration of nitrate nitrogen (Nitrosomonas spp.; 0.50 ppm, week 1): 11 PPM | Recovery of Ammonium Nitrogen (Nitrosomonas spp.; 0.50 ppm, week 1): 155 PPM | Concentration of nitrate nitrogen (Nitrosomonas spp.; 0.50 ppm, week 2): 23 PPM | Recovery of Ammonium Nitrogen (Nitrosomonas spp.; 0.50 ppm, week 2): 177 PPM | Concentration of nitrate nitrogen (Nitrosomonas spp.; 0.50 ppm, week 4): 21 PPM | Recovery of Ammonium Nitrogen (Nitrosomonas spp.; 0.50 ppm, week 4): 185 PPM | Concentration of nitrate nitrogen (Nitrosomonas spp.; 0.50 ppm, week 7): 25 PPM | Recovery of Ammonium Nitrogen (Nitrosomonas spp.; 0.50 ppm, week 7): 188 PPM | Concentration of nitrate nitrogen (Nitrosomonas spp.; 0.50 ppm, week 9): 39 PPM | Recovery of Ammonium Nitrogen (Nitrosomonas spp.; 0.50 ppm, week 9): 174 PPM | Concentration of nitrate nitrogen (Nitrosomonas spp.; 0.50 ppm, week 12): 49 PPM | Recovery of Ammonium Nitrogen (Nitrosomonas spp.; 0.50 ppm, week 12): 184 PPM | Concentration of nitrate nitrogen (Nitrosomonas spp.; 0.50 ppm, week 16): 148 PPM | Recovery of Ammonium Nitrogen (Nitrosomonas spp.; 0.50 ppm, week 16): 70 PPM | Concentration of nitrate nitrogen (Nitrosomonas spp.; 0.50 ppm, week 20): 163 PPM | Recovery of Ammonium Nitrogen (Nitrosomonas spp.; 0.50 ppm, week 20): 25 PPM | Ammonium Recovery, reported as nitrogen (Nitrosomonos; week 0): 194 ppm | Nitrate, reported as nitrogen (Nitrosomonos; week 0): 20 ppm | Ammonium Recovery, reported as nitrogen (Nitrosomonos; week 1): 188 ppm | Nitrate, reported as nitrogen (Nitrosomonos; week 1): 18 ppm | Ammonium Recovery, reported as nitrogen (Nitrosomonos; week 2): 195 ppm | Nitrate, reported as nitrogen (Nitrosomonos; week 2): 15 ppm | Ammonium Recovery, reported as nitrogen (Nitrosomonos; week 4): 200 ppm | Nitrate, reported as nitrogen (Nitrosomonos; week 4): 22 ppm | Ammonium Recovery, reported as nitrogen (Nitrosomonos; week 7): 179 ppm | Nitrate, reported as nitrogen (Nitrosomonos; week 7): 48 ppm | Ammonium Recovery, reported as nitrogen (Nitrosomonos; week 9): 141 ppm | Nitrate, reported as nitrogen (Nitrosomonos; week 9): 79 ppm | Ammonium Recovery, reported as nitrogen (Nitrosomonos; week 12): 125 ppm | Nitrate, reported as nitrogen (Nitrosomonos; week 12): 114 ppm | Ammonium Recovery, reported as nitrogen (Nitrosomonos; week 16): 127 ppm | Nitrate, reported as nitrogen (Nitrosomonos; week 16): 126 ppm | Ammonium Recovery, reported as nitrogen (Nitrosomonos; week 20): 91 ppm | Nitrate, reported as nitrogen (Nitrosomonos; week 20): 128 ppm

NP(N)(=O)Oc1ccccc1 [PPD, Phenylphosphorodiamide]
% INHIBITION (urease) (Urease; (A-B)/(C-B) X 100, urea 1000 ug/g soil): 63% | AVERAGE amount of urea remaining (Urease; average of 3 replicates, urea 1000 ug/g soil): 769 µg/g | AMOUNT REMAINING (urea) (Urease; single replicates, urea 1000 ug/g soil): 755 µg/g and 767 µg/g and 770 µg/g
